Earlier results on one compound are cited in US20140271772A1, “BIODEGRADABLE SUBCUTANEOUS IMPLANTS AND METHODS OF MAKING” (priority 2013, published 2014).

The structures appear in SMILES notation.

Data set [1] has as its system cats.

As to `Nc1nc2c(ncn2COCCO)c(=O)[nH]1` [acyclovir], the oral bioavailability is 10-30%. Besides, the toxicity to cats result in data set [1] is “toxic to cats”.
